From publication PMC10178848, “Modulating fast skeletal muscle contraction protects skeletal muscle in animal models of Duchenne muscular dystrophy” (The Journal of Clinical Investigation, 2023)
Like-named read-outs stand apart in the source and are kept apart here.

Assays:
WT or mdx mice = experiment: Forelimb grip strength; format: in vivo, mouse; details: single doses up to 10 mg/kg, 4 hours after oral administration
Method: Prior to in vivo assessments, mice were dosed PO after a 2-hour fast with 10 mL/Kg suspensions. Grip strength and rotarod assessments were performed masked, 4 hours after dosing using published protocols ([66], [67]). Grip strength was performed with a Columbus Instruments Rodent Force Meter. Forepaw strength represented the average of 5 trials with 30-second rest periods, normalized by BW. Rotarod endurance was performed with a Columbus Instruments RotaMax. Mice were placed on the device drum at 1 rpm, which accelerated 1 rpm every 3 seconds to 12 rpm and a maximal time of 500 seconds. This was repeated 3 times with a 3-minute rest and total time reported. Voluntary wheel running performance was assessed with a customized system. Timestamped RPMs were measured 24 hours per day by infrared sensors, and a custom software calculated distance. Whole-body EBD was visualized after intravenous administration ([35]). EBD in PBS at 10 mg/mL was sterile filtered, and 50 μL/10 g BW was injected via tail vein. After 24 hours, animals were sacrificed, skin was removed and fixed in 4% formalin for 24 hours, and photographed using a Leica/Lumix camera.

mdx mice = experiment: Chronic 8-week dosing in mdx mice (fibrosis, weights, histology); format: in vivo, mouse
Source text: C57BL/6 (stock no. 000664), C57BL/10J (stock no. 000665, control for mdx experiments), C57BL/10ScSn-Dmd^mdx/J (mdx, stock no. 001801), and D2.B10 (DBA/2-congenic) Dmd^mdx (DBA/2J mdx, stock no. 013141) mice were from The Jackson Laboratory. Sprague-Dawley rats were purchased from Charles River Laboratories. For ex vivo experiments, mice were 10–16 weeks old. For in situ experiments, mice were 8–14 weeks of age. For in vivo chronic dosing studies, mdx and DBA/2J mdx were 4–5 weeks of age at study start. Dosing was via a 10 mL/kg suspension (1% methyl cellulose, 0.1% Tween 80 in water). For studies in 14-day-old preweaning mice, PO dosing was via syrup suspension (3 mg/kg/d). GRMD were supplied by Texas A&M Department of Veterinary Integrative Biosciences.
(§1) For sterile muscle injury, mice were anesthetized with isoflurane and 50 μL cardiotoxin (12 × 10^–6 M, 217503, Millipore) injected in the TA muscle. Muscles 8 days after injury were snap frozen in nitrogen-chilled isopentane. 8 μm cryosections were cut and stained with H&E. For each analysis, more than 10 slides (per condition/group) containing 6 muscle sections/sample were used, and myofibers in the injured area were counted and measured with a Mirax digital scanner and HALO software ([68]). For adult mouse studies, muscles were fixed in 10% formalin and embedded in paraffin for sectioning. Laminin staining (RB-082, Thermo Fisher Scientific) was used to outline fibers, and picrosirius red was used for collagen accumulation. Image analysis was performed using ImarisX64 software (Bitplane AG), and fiber sizing was calculated using minimal Feret’s diameter ([69]). For after weaning juvenile mouse studies, cryosections from soleus muscles were mounted in ProLong antifade mountant with DAPI (Thermo Fisher Scientific). Fiber type, size, and central nucleation were quantified with analysis via SMASH ([70]) and ImageJ (NIH). Antibodies used were mouse anti-MHC2A (1:50, SC-71, Developmental Studies Hybridoma Bank) and mouse anti-eMHC (1:10, BF-45, Developmental Studies Hybridoma Bank).

healthy mice, TA muscle = experiment: Cardiotoxin sterile muscle injury repair; format: in vivo, mouse; details: day 8 post injury
Method: as §1

[1] = molecular target: T1, ABL1(E255K)-phosphorylated (Homo sapiens, UniProt P00519, E255K); experiment: KINOMEscan scanEDGE; format: binding; details: 20 uM
T1 construct: purchased Eurofins DiscoverX (KINOMEscan; SAFETYscan E/IC50 ELECT)

ADCK3 = molecular target: T2, ADCK3 (Homo sapiens, UniProt Q8NI60); experiment: KINOMEscan scanEDGE; format: binding; details: 20 uM
T2 construct: purchased Eurofins DiscoverX (KINOMEscan; SAFETYscan E/IC50 ELECT)

CDK11 = molecular target: T3, CDK11 (Homo sapiens, UniProt Q9BWU1); experiment: KINOMEscan scanEDGE; format: binding; details: 20 uM
T3 construct: purchased Eurofins DiscoverX (KINOMEscan; SAFETYscan E/IC50 ELECT)

PAK1 = molecular target: T4, PAK1 (Homo sapiens, UniProt Q13153); experiment: KINOMEscan scanEDGE; format: binding; details: 20 uM
T4 construct: purchased Eurofins DiscoverX (KINOMEscan; SAFETYscan E/IC50 ELECT)

PDGFRB = molecular target: T5, PDGFRB (Homo sapiens, UniProt P09619); experiment: KINOMEscan scanEDGE; format: binding; details: 20 uM
T5 construct: purchased Eurofins DiscoverX (KINOMEscan; SAFETYscan E/IC50 ELECT)

PLK4 = molecular target: T6, PLK4 (Homo sapiens, UniProt O00444); experiment: KINOMEscan scanEDGE; format: binding; details: 20 uM
T6 construct: purchased Eurofins DiscoverX (KINOMEscan; SAFETYscan E/IC50 ELECT)

SNARK = molecular target: T7, SNARK (Homo sapiens, UniProt Q9H093); experiment: KINOMEscan scanEDGE; format: binding; details: 20 uM
T7 construct: purchased Eurofins DiscoverX (KINOMEscan; SAFETYscan E/IC50 ELECT)

ADRA2A = molecular target: T8, ADRA2A (Homo sapiens, UniProt P08913); experiment: SAFETYscan cAMP; format: cell-based; set-up: dose or concentration left out as unconfirmed
T8 construct: purchased Eurofins DiscoverX (KINOMEscan; SAFETYscan E/IC50 ELECT)
Method: (§2) The specificity of EDG-5506 for fast skeletal myosin over other, unrelated proteins was confirmed using two off-target binding and activity screens. […] A second off-target panel (SAFETYscan E/IC50 ELECT, Eurofins DiscoverX) tested in vitro enzyme activity against 78 proteins, including GPCR, ion channel, kinases, nuclear hormone receptors, and transporters. In all assays, the IC50 of EDG-5506 was more than 10 μM (Supplemental Data File 1).

ADRB2 = molecular target: T9, ADRB2 (Homo sapiens, UniProt P07550); experiment: SAFETYscan cAMP; format: cell-based; set-up: dose or concentration left out as unconfirmed
T9 construct: purchased Eurofins DiscoverX (KINOMEscan; SAFETYscan E/IC50 ELECT)
Method: as §2

OPRD1 = molecular target: T10, OPRD1 (Homo sapiens, UniProt P41143); experiment: SAFETYscan cAMP; format: cell-based; set-up: dose or concentration left out as unconfirmed
T10 construct: purchased Eurofins DiscoverX (KINOMEscan; SAFETYscan E/IC50 ELECT)
Method: as §2

OPRK1 = molecular target: T11, OPRK1 (Homo sapiens, UniProt P41145); experiment: SAFETYscan cAMP; format: cell-based; set-up: dose or concentration left out as unconfirmed
T11 construct: purchased Eurofins DiscoverX (KINOMEscan; SAFETYscan E/IC50 ELECT)
Method: as §2

OPRM1 = molecular target: T12, OPRM1 (Homo sapiens, UniProt P35372); experiment: SAFETYscan cAMP; format: cell-based; set-up: dose or concentration left out as unconfirmed
T12 construct: purchased Eurofins DiscoverX (KINOMEscan; SAFETYscan E/IC50 ELECT)
Method: as §2

[2] = read-out: Max Response (%) (Agonist)
[3] = read-out: Max Response (%) (Antagonist)

T8 sequence (P08913 whole entry): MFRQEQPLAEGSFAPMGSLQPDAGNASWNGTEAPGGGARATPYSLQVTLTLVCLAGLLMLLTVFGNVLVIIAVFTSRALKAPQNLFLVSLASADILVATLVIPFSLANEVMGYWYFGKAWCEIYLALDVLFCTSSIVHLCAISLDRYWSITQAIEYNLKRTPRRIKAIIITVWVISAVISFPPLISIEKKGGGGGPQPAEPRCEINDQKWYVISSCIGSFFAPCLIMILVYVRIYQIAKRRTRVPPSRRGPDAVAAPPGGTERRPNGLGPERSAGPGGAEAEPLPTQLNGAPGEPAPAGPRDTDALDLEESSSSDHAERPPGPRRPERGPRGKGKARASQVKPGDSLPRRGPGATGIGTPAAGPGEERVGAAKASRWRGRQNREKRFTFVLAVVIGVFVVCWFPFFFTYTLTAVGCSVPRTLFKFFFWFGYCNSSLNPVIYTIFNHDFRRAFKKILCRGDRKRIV
T9 sequence (P07550 whole entry): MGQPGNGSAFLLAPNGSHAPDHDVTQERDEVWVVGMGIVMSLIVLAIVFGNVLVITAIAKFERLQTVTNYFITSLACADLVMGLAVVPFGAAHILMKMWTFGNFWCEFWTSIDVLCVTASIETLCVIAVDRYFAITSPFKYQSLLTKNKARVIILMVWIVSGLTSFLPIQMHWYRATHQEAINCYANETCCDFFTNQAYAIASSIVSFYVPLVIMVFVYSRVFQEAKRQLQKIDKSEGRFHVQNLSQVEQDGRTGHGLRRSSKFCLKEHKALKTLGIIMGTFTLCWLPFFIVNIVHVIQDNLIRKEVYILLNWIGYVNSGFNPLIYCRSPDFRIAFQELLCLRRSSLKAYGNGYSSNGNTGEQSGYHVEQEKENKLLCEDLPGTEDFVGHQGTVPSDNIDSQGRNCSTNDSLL
T10 sequence (P41143 whole entry): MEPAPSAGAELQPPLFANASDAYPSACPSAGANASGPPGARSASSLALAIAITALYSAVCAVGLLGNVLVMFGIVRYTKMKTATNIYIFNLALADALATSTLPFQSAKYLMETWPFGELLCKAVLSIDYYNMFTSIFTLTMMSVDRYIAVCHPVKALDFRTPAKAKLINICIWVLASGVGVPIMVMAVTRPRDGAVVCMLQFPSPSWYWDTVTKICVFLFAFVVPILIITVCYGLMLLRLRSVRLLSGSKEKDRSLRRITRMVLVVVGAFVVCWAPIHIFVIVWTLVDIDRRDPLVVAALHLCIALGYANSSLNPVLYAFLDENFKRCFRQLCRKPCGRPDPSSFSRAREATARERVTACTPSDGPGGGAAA
T12 sequence (P35372 whole entry): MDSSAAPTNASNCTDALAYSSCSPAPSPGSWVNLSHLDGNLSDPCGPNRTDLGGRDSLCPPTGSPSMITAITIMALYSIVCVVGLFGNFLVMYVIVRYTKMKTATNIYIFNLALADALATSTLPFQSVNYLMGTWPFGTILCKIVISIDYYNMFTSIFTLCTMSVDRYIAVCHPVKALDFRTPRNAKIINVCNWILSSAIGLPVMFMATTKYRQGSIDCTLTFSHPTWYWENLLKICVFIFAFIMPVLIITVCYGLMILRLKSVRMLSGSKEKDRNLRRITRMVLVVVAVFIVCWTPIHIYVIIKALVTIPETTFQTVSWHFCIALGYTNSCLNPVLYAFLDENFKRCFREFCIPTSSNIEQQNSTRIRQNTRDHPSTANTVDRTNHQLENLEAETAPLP
T11 sequence (P41145 whole entry): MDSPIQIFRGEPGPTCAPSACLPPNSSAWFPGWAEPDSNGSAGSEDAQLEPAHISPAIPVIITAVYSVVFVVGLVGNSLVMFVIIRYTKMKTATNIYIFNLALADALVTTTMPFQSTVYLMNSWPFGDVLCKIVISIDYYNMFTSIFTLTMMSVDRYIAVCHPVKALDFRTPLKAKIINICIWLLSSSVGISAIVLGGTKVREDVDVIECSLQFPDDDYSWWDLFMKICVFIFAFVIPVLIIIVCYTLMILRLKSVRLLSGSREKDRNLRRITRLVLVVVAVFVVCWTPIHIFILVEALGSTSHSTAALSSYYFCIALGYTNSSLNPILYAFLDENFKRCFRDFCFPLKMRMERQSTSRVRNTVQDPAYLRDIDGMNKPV
T5 sequence (P09619 33-1106): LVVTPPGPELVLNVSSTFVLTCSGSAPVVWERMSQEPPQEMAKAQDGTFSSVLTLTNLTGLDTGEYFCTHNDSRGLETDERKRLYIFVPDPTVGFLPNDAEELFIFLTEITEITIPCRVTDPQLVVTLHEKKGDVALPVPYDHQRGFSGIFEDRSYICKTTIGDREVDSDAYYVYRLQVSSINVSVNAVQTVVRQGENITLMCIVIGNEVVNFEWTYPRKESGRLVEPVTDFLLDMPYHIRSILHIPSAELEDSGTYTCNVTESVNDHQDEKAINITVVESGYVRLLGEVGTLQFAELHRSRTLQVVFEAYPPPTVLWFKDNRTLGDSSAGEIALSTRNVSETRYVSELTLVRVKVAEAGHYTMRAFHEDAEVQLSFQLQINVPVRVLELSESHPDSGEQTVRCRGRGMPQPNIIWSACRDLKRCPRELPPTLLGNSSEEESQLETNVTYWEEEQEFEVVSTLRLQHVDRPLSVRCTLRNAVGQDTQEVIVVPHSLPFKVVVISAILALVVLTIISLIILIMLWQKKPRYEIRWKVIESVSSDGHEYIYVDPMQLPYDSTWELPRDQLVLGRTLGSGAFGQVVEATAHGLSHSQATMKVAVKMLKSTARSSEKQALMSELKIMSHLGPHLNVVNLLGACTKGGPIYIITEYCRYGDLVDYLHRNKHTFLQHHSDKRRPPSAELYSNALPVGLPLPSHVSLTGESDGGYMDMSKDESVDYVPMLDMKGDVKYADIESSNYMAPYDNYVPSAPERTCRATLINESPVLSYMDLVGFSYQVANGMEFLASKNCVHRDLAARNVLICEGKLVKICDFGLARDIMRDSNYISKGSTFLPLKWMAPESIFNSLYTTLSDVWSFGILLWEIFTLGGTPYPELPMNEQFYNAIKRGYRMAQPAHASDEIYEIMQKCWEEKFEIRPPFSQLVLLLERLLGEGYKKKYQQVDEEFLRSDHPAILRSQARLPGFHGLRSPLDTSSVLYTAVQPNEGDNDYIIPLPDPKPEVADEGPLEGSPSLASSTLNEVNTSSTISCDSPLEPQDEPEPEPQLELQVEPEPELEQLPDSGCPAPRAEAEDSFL
T6 sequence (O00444 whole entry): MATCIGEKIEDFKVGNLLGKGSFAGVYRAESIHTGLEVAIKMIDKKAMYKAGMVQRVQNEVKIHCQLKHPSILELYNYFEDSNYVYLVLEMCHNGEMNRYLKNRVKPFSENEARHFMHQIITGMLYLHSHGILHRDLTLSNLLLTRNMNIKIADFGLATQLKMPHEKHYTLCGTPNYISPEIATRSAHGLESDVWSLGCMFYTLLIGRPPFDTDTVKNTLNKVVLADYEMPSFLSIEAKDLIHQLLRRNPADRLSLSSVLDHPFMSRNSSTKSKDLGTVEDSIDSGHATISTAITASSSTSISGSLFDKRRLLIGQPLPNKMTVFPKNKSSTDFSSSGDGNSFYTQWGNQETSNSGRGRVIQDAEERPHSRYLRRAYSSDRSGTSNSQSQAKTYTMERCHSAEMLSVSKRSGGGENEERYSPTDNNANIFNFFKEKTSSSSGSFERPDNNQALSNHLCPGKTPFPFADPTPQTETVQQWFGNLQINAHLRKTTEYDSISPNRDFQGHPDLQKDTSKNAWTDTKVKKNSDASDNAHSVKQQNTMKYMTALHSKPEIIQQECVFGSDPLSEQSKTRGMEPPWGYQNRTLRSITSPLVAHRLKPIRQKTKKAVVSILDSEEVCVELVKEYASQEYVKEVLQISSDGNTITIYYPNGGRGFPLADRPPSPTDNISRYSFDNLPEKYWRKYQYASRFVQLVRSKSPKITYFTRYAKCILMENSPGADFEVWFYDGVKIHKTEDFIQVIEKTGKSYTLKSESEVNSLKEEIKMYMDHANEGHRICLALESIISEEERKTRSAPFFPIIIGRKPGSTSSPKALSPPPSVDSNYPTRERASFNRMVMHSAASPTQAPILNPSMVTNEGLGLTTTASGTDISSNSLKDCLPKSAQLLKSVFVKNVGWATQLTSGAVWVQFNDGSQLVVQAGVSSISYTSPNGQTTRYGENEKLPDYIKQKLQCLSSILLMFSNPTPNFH
T7 sequence (Q9H093 whole entry): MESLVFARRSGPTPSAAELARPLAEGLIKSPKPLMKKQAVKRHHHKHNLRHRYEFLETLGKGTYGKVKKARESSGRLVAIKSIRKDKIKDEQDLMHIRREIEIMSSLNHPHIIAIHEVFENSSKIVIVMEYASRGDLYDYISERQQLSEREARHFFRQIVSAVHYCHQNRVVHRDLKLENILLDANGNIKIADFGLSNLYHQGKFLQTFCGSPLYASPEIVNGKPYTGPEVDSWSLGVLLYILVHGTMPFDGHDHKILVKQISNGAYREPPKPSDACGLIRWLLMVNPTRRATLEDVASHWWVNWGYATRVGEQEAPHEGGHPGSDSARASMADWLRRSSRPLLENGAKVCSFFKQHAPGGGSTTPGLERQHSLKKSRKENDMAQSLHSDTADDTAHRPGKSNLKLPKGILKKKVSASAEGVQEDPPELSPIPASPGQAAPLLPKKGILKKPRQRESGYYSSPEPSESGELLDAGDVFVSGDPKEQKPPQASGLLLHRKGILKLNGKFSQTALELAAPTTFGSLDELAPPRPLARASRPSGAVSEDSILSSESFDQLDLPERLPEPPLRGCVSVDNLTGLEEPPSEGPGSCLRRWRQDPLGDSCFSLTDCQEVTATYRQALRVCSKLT

For `O=c1ccc(-c2cnc(OCC(F)(F)F)nc2)nn1Cc1cncc(F)c1` [EDG-5506], the grip strength (WT or mdx mice) was “no effect”, the “body or muscle weight” value (mdx mice; 8 weeks) was “no effect” and the “diaphragm fibrosis (collagen, picrosirius red)” value (mdx mice; 8 weeks of treatment) was “decreased diaphragm fibrosis”. The average grip strength (mdx mice; after 5 weeks of dosing) was “increased average grip strength”, the “muscle repair after cardiotoxin injury” value (healthy mice, TA muscle) was “did not interfere with muscle repair” and the “binding, % of control” value [1] was 83 % of control. The “binding, % of control” value (ADCK3) was 93 % of control, the “binding, % of control” value (CDK11) was 95 % of control and the “binding, % of control” value (PAK1) was 100 % of control. For the same compound, the “binding, % of control” value (PDGFRB) was 100 % of control, the “binding, % of control” value (PLK4) was 90 % of control and the “binding, % of control” value (SNARK) was 100 % of control. For the same compound, the Emax (ADRA2A; [2]) was 19.2%, the Emax (ADRA2A; [3]) was 0.88% and the Emax (ADRB2; [2]) was 0.97%. It also gave an Emax (ADRB2; [3]) of 20.8%, an Emax (OPRD1; [2]) of 7.61% and an Emax (OPRD1; [3]) of 9.41%. It also gave an Emax (OPRK1; [2]) of 9.76%, an Emax (OPRK1; [3]) of 0.05% and an Emax (OPRM1; [2]) of 17.4%. The Emax (OPRM1; [3]) was 0.2%.
